Measurements from PMC4167230, “Hydrophobic Substituents of the Phenylmethylsulfamide Moiety Can Be Used for the Development of New Selective Carbonic Anhydrase Inhibitors” (BioMed Research International, 2014).

Experiments:
Assay in all cases: stopped-flow CO2 hydration assay
Format in all cases: biochemical
hCA I = target: T1, hCA I (Homo sapiens, UniProt P00915); settings: read-out: K I (nM)∗ / hCA I
T1 construct: gene CA1; cytosolic isoform
Text: stopped-flow CO2 hydration assay on hCA I

hCA II = target: T2, hCA II (Homo sapiens, UniProt P00918); settings: read-out: K I (nM)∗ / hCA II
T2 construct: gene CA2; cytosolic isoform; one molecule in the asymmetric unit
Text: stopped-flow CO2 hydration assay on hCA II

hCA XII = target: T3, hCA XII (Homo sapiens, UniProt O43570); settings: read-out: K I (nM)∗ / hCA XII
T3 construct: gene CA12; transmembrane isoform
T3 sequence (O43570 25-354): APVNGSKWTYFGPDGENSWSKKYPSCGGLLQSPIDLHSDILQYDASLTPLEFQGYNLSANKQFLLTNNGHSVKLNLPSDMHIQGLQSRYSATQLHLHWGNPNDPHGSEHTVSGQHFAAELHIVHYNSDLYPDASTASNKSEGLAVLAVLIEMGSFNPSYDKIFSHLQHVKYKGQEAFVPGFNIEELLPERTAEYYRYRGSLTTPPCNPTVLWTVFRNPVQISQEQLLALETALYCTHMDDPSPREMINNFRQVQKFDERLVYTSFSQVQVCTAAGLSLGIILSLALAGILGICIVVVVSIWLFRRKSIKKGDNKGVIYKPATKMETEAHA
Text: stopped-flow CO2 hydration assay on hCA XII

T1 sequence (P00915 2-261): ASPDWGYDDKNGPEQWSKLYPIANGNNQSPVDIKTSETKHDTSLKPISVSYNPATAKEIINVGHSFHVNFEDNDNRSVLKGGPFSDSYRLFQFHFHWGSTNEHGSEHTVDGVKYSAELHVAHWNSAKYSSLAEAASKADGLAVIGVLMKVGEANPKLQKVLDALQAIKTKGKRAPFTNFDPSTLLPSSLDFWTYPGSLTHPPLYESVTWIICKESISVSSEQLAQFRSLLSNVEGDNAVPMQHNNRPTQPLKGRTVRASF

SMILES | Ki (hCA I) [nM] | Ki (hCA II) [nM] | Ki (hCA XII) [nM]
NS(=O)(=O)NCc1ccc(O)cc1 [compound 11, N-(4-Hydroxybenzyl)sulfuric Diamide] | 2180 | 74.1 | 5.8
COc1ccc(CNS(N)(=O)=O)cc1 [compound 12, N-(4-Methoxybenzyl)sulfuric Diamide] | 4050 | 134 | 6.6
CC#CCOc1ccc(C=NS(N)(=O)=O)cc1 [compound 13, N-([4-(But-2-yn-1-yloxy)phenyl]methylidene)sulfuric Diamide] | 1940 | 9.8 | 8.4
CC#CCOc1ccc(CNS(N)(=O)=O)cc1 [compound 14, N-[4-(But-2-yn-1-yloxy)benzyl]sulfuric Diamide] | 1810 | 9.5 | 8.1

Now from value to compound:

Ki (hCA I) [nM] | Ki (hCA II) [nM] | Ki (hCA XII) [nM] | SMILES
1650 | 188 | 6.5 | Cc1cc(COc2ccc(C=NS(N)(=O)=O)cc2)c2ccccc2n1 [compound 15, N-({4-[(2-Methylquinolin-4-yl)methoxy]phenyl}methylidene)sulfuric Diamide]
1440 | 43.3 | 6.6 | Cc1cc(COc2ccc(CNS(N)(=O)=O)cc2)c2ccccc2n1 [compound 16, N-{4-[(2-Methylquinolin-4-yl)methoxy]benzyl}sulfuric Diamide]
